From patent publication US10226448B2, “3-(1H-pyrrolo[3,2-C]pyridin-2-yl)-1H-pyrazolo[3,4-B]pyridines and therapeutic uses thereof” (Samumed, LLC, priority 2015, dated 2019)

Tests used:
Format in all cases: cell-based
SW480 colon cancer cells = assay: Cell viability assay (CellTiter-Blue) in SW480 colon cancer cells; conditions: Homo sapiens; for EC50: 96 h, SW480 cell viability, four days, CellTiter-Blue; for inhibition at 10 µM: SW480, read-out: percent inhibition at 10 μM
Experimental: Representative compounds were screened using the following assay procedure to assess the effect on cell viability as described below.
Approximately 2×10^3 SW480 colon cancer cells were seeded into each well and allowed to incubate in the presence or absence of compound for four days at 37° C./5% CO2. Eight replicates of DMSO-treated cells served as controls and cells treated with compound were performed in duplicate.
After incubation, 20 μL of CellTiter-Blue (Promega) was added to each well allowed to incubate for approximately 3 hours. This reagent was a buffered solution which contains resazurin, metabolically active cells were able to reduce rezarurin (blue) into resorufin (pink) which was highly fluorescent. This measured fluorescence was used as a readout for cell viability.

[1] = test system: Wnt activity (Sp5-Luc reporter, TCF/LEF binding sites) in SW480 colon carcinoma cells; assay: Wnt activity screening assay: Sp5-Luc reporter gene assay in SW480 cells; conditions: Homo sapiens; for EC50: Sp5-Luc reporter, SW480 cells, overnight incubation; for inhibition at 10 µM: SW480, read-out: percent inhibition at 10 μM
Excerpt: The screening assay for Wnt activity is described as follows. Reporter cell lines can be generated by stably transducing cancer cell lines (e.g., colon cancer) or primary cells (e.g., IEC-6 intestinal cells) with a lentiviral construct that includes a Wnt-responsive promoter driving expression of the firefly luciferase gene.
SW480 colon carcinoma cells were transduced with a lentiviral vector expressing luciferase with a human Sp5 promoter consisting of a sequence of eight TCF/LEF binding sites. SW480 cells stably expressing the Sp5-Luc reporter gene and a hygromycin resistance gene were selected by treatment with 150 μg/mL of hygromycin for 7 days. These stably transduced SW480 cells were expanded in cell culture and used for all further screening activities. […] For Sp5-Luc reporter gene assays, the cells were plated at 4,000 cells/well in 384-well plates with medium containing 1% fetal bovine serum and incubated overnight at 37° C. and 5% CO2. Following incubation, 20 μl of BrightGlo luminescence reagent (Promega) was added to each well of the 384-well assay plates. The plates were placed on an orbital shaker for 2 min and then luminescence was quantified using the Envision (Perkin Elmer) plate reader. Readings were normalized to DMSO only treated cells, and normalized activities were utilized for EC50 calculations using the dose-response log (inhibitor) vs. response variable slope (four parameters) nonlinear regression feature available in GraphPad Prism 5.0 (or Dotmatics).

[2] = test system: LL29 cells (primary human fibroblasts derived from IPF patients), α-smooth muscle actin; assay: Inhibition of the fibrotic process: αSMA staining in TGF-β1 treated primary human fibroblasts from IPF patients (LL29 cells); conditions: Fibroblast; for EC50: 96 h, LL29 cells, TGF-β1 20 ng/mL, 4 days, % αSMA positive cells; for inhibition at 10 µM: read-out: percent inhibition at 10 μM
Experimental: Representative compounds were screened using primary human fibroblasts (derived from IPF patients) treated with TGF-β1 to determine their ability to inhibit the fibrotic process.
LL29 cells are plated at 1,500 cells/well in 80 μL/well F12 medium supplemented with 1% Fetal Bovine Serum. […] Wells treated with TGF-β1 and containing DMSO were used as controls. […] Following incubation for 4 days, SYTOX green nucleic acid stain (Life Technologies [Thermo Fisher Scientific]) was added to the wells at a final concentration of 1 μM and incubated at room temperature for 30 min.

IL-6 in THP-1 cells = assay: IL-6 inhibition in LPS-stimulated THP-1 human monocyte cells (HTRF); conditions: for EC50: IL-6 inhibition, LPS-stimulated THP-1 cells, HTRF, 10-point dose-response starting from 10 μM; for inhibition at 10 µM: THP-1, read-out: percentage in parentheses beside EC50 >10
Experimental: Compound Screening: THP-1 cells were cultured in basal media with 1% FBS for 24 hours before the start of the assay. […] THP-1 cells were plated at 5000 cells/well in the 384-well plates and incubated at 37° C. for 2 h. 500 ng/mL of LPS was added after 2 hours and cells were incubated for another 22 hours at 37° C. Plates were spun in a centrifuge for 1 minute at […] and a mixture of anti-IL6 XL665, and anti-IL6 Cryptate diluted in reconstitution buffer (Cisbio Inc.) was added to each well. Following incubation for 3 hrs at room temperature, Homogeneous Time-Resolved Fluorescence (HTRF) was measured using the Envision (Perkin Elmer) at 665 nm and […]. The ratio of fluorescence at 665 nm to 620 nm was used as a readout for IL6 quantification. All samples were processed in duplicate. Readings were normalized to DMSO treated cells and normalized activities were utilized for EC50 calculations using the dose-response log (inhibitor) vs. response variable slope (four parameters) nonlinear regression feature available in GraphPad Prism 5.0 (or Dotmatics).

SMILES	EC50 (SW480 colon cancer cells) [nM]	EC50 [1] [nM]	EC50 (IL-6 in THP-1 cells) [nM]	EC50 [2] [nM]	inhibition at 10 µM [1] [%]	inhibition at 10 µM (IL-6 in THP-1 cells) [%]	inhibition at 10 µM (SW480 colon cancer cells) [%]	inhibition at 10 µM [2] [%]
CC(C)(C)C(=O)Nc1cncc(-c2cnc3[nH]nc(-c4cc5c(N6CCCCC6)nccc5[nH]4)c3c2)c1 [Compound 176, N-(5-(3-(4-(Piperidin-1-yl)-1H-pyrrolo[3,2-c]pyridin-2-yl)-1H-pyrazolo[3,4-b]pyridin-5-yl)pyridin-3-yl)pivalamide]	> 10000	> 10000	> 10000	> 10000	18.2	25.9	5.2	28.2
CN(C)Cc1cncc(-c2cnc3[nH]nc(-c4cc5c(N6CCCCC6)nccc5[nH]4)c3c2)c1 [Compound 181, N,N-Dimethyl-1-(5-(3-(4-(piperidin-1-yl)-1H-pyrrolo[3,2-c]pyridin-2-yl)-1H-pyrazolo[3,4-b]pyridin-5-yl)pyridin-3-yl)methanamine]	7760	> 10000	> 10000	9720	20.3	41.5		
CN1CCN(c2nccc3[nH]c(-c4n[nH]c5ncc(-c6cncc(CN7CCC(F)(F)C7)c6)cc45)cc23)CC1 [Compound 250, 5-(5-((3,3-Difluoropyrrolidin-1-yl)methyl)pyridin-3-yl)-3-(4-(4-methylpiperazin-1-yl)-1H-pyrrolo[3,2-c]pyridin-2-yl)-1H-pyrazolo[3,4-b]pyridine]	3150	3650	400	4940				
CN1CCN(c2nccc3[nH]c(-c4n[nH]c5ncc(-c6cncnc6)cc45)cc23)CC1 [Compound 251, 3-(4-(4-Methylpiperazin-1-yl)-1H-pyrrolo[3,2-c]pyridin-2-yl)-5-(pyrimidin-5-yl)-1H-pyrazolo[3,4-b]pyridine]	> 10000	> 10000	> 10000	> 10000	17.8	35.7	8.3	24.7
c1ccc(-c2cnc3[nH]nc(-c4cc5cnccc5[nH]4)c3c2)nc1 [Compound 280, 5-(Pyridin-2-yl)-3-(1H-pyrrolo[3,2-c]pyridin-2-yl)-1H-pyrazolo[3,4-b]pyridine]	1140	3130	3690	3870				
c1cc2[nH]c(-c3n[nH]c4ncc(-c5cncc(CN6CCCC6)c5)cc34)cc2c(-c2ccoc2)n1 [Compound 322, 3-(4-(Furan-3-yl)-1H-pyrrolo[3,2-c]pyridin-2-yl)-5-(5-(pyrrolidin-1-ylmethyl)pyridin-3-yl)-1H-pyrazolo[3,4-b]pyridine]	2340	4050	> 10000	2210		29.4		
FC1(F)CCN(Cc2cncc(-c3cnc4[nH]nc(-c5cc6c(-c7ccoc7)nccc6[nH]5)c4c3)c2)C1 [Compound 334, 5-(5-((3,3-Difluoropyrrolidin-1-yl)methyl)pyridin-3-yl)-3-(4-(furan-3-yl)-1H-pyrrolo[3,2-c]pyridin-2-yl)-1H-pyrazolo[3,4-b]pyridine]	369	199	102	912				

The next lines start with results.

EC50 (SW480 colon cancer cells) [nM]	EC50 [1] [nM]	EC50 (IL-6 in THP-1 cells) [nM]	SMILES	EC50 [2] [nM]	inhibition at 10 µM [1] [%]	inhibition at 10 µM (IL-6 in THP-1 cells) [%]	inhibition at 10 µM (SW480 colon cancer cells) [%]	inhibition at 10 µM [2] [%]
856	1820	4780	Fc1cccc(-c2nccc3[nH]c(-c4n[nH]c5ncc(-c6cncc(CN7CCCCC7)c6)cc45)cc23)c1 [Compound 15, 3-(4-(3-Fluorophenyl)-1H-pyrrolo[3,2-c]pyridin-2-yl)-5-(5-(piperidin-1-ylmethyl)pyridin-3-yl)-1H-pyrazolo[3,4-b]pyridine]	660				
738	> 10000	> 10000	Fc1cccc(-c2nccc3[nH]c(-c4n[nH]c5ncc(-c6ccncc6)cc45)cc23)c1 [Compound 18, 3-(4-(3-Fluorophenyl)-1H-pyrrolo[3,2-c]pyridin-2-yl)-5-(pyridin-4-yl)-1H-pyrazolo[3,4-b]pyridine]	542	22.6	0		
519	1290	3460	Fc1cccc(-c2nccc3[nH]c(-c4n[nH]c5ncc(-c6ccccn6)cc45)cc23)c1 [Compound 28, 3-(4-(3-Fluorophenyl)-1H-pyrrolo[3,2-c]pyridin-2-yl)-5-(pyridin-2-yl)-1H-pyrazolo[3,4-b]pyridine]	752				
1500	> 10000	> 10000	Cc1ccncc1-c1cnc2[nH]nc(-c3cc4c(-c5ccc(F)cc5)nccc4[nH]3)c2c1 [Compound 33, 3-(4-(4-Fluorophenyl)-1H-pyrrolo[3,2-c]pyridin-2-yl)-5-(4-methylpyridin-3-yl)-1H-pyrazolo[3,4-b]pyridine]	553	46.5	16.4		
700	986	2040	CC(C)(C)CC(=O)Nc1cncc(-c2cnc3[nH]nc(-c4cc5c(-c6ccc(F)cc6)nccc5[nH]4)c3c2)c1 [Compound 44, N-(5-(3-(4-(4-Fluorophenyl)-1H-pyrrolo[3,2-c]pyridin-2-yl)-1H-pyrazolo[3,4-b]pyridin-5-yl)pyridin-3-yl)-3,3-dimethylbutanamide]	315				
> 10000	> 10000	> 10000	CN(C)c1cncc(-c2cnc3[nH]nc(-c4cc5c(-c6cccnc6)nccc5[nH]4)c3c2)c1 [Compound 91, N,N-Dimethyl-5-(3-(4-(pyridin-3-yl)-1H-pyrrolo[3,2-c]pyridin-2-yl)-1H-pyrazolo[3,4-b]pyridin-5-yl)pyridin-3-amine]	6980	41.6	32.3	3	
> 10000	1150	3630	FC1(F)CCN(Cc2cncc(-c3cnc4[nH]nc(-c5cc6c(-c7ccncc7)nccc6[nH]5)c4c3)c2)C1 [Compound 138, 5-(5-((3,3-Difluoropyrrolidin-1-yl)methyl)pyridin-3-yl)-3-(4-(pyridin-4-yl)-1H-pyrrolo[3,2-c]pyridin-2-yl)-1H-pyrazolo[3,4-b]pyridine]	2220			14.3	
> 10000	> 10000	> 10000	c1cc(-c2cnc3[nH]nc(-c4cc5c(N6CCCCC6)nccc5[nH]4)c3c2)ccn1 [Compound 186, 3-(4-(Piperidin-1-yl)-1H-pyrrolo[3,2-c]pyridin-2-yl)-5-(pyridin-4-yl)-1H-pyrazolo[3,4-b]pyridine]	> 10000	30.8	25.4	11.1	0
1080	1650	5110	Cc1ccncc1-c1cnc2[nH]nc(-c3cc4c(-c5cccs5)nccc4[nH]3)c2c1 [Compound 341, 5-(4-Methylpyridin-3-yl)-3-(4-(thiophen-2-yl)-1H-pyrrolo[3,2-c]pyridin-2-yl)-1H-pyrazolo[3,4-b]pyridine]	330				
